Assay results taken from the supplement of paper PMC4862054.

What was measured:
Settings in all cases: incubation time: 72 h
[1] = system: MFM-223; assay: normalised response (% of control), CellTiter-Glo; higher = more viable cells (100 = DMSO, 0 = benzethonium chloride kill control)
In short: (§1)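 Each entry is the normalised signal at a single concentration within a series. The series comprised 5 concentrations in 10-fold steps over a compound-specific 10,000-fold range, placed in 384-well plates into which breast cancer cell lines were seeded as 20 µl suspension and incubated 72 h. CellTox Green (485/520 nm) fluorescence and then CellTiter-Glo luminescence were read, with signals normalised per plate to 0.1 % DMSO (100) and a positive kill control (0).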

[2] = system: MCF-10A; assay: as above
In short: as §1

[3] = system: HCC1599; assay: as above
In short: as §1

[4] = system: MDA-MB-436; assay: as above
In short: as §1

[5] = system: MDA-MB-453; assay: as above
In short: as §1

[6] = system: BT-474; assay: as above
In short: as §1

[7] = system: HCC1937; assay: as above
In short: as §1

[8] = system: MDA-MB-468; assay: as above
In short: as §1

[9] = system: CAL-85-1; assay: as above
In short: as §1

[10] = system: DU-4475; assay: as above
In short: as §1

[11] = system: Hs578T; assay: as above
In short: as §1

[12] = system: HDQ-P1; assay: as above
In short: as §1

[13] = system: HCC1143; assay: as above
In short: as §1

[14] = system: MDA-MB-231; assay: as above
In short: as §1

[15] = system: BT-549; assay: as above
In short: as §1

[16] = system: CAL-148; assay: as above
In short: as §1

[17] = system: CAL-51; assay: as above
In short: as §1

[18] = system: SK-BR-3; assay: as above
In short: as §1

[19] = system: CAL-120; assay: as above
In short: as §1

[20] = system: MFM-223; assay: normalised viability (% of control), CellTiter-Blue; higher = more viable cells (100 = DMSO, 0 = benzethonium chloride kill control)
In short: (§2)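 Seeded at 20 µl suspension per well onto compound-loaded 384-well plates, breast cancer cell lines were incubated 72 h. CellTiter-Blue fluorescence at 560/590 nm was then read, with each plate normalised to vehicle (100) and a positive kill control (0). Normalised viability is reported at a single listed concentration of the series.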

[21] = system: HCC1599; assay: as above
In short: as §2

[22] = system: MDA-MB-436; assay: as above
In short: as §2

[23] = system: MDA-MB-453; assay: as above
In short: as §2

[24] = system: BT-474; assay: as above
In short: as §2

[25] = system: HCC1937; assay: as above
In short: as §2

[26] = system: MDA-MB-468; assay: as above
In short: as §2

[27] = system: CAL-85-1; assay: as above
In short: as §2

[28] = system: DU-4475; assay: as above
In short: as §2

[29] = system: Hs578T; assay: as above
In short: as §2

[30] = system: HDQ-P1; assay: as above
In short: as §2

[31] = system: HCC1143; assay: as above
In short: as §2

[32] = system: MDA-MB-231; assay: as above
In short: as §2

[33] = system: BT-549; assay: as above
In short: as §2

[34] = system: CAL-148; assay: as above
In short: as §2

[35] = system: CAL-51; assay: as above
In short: as §2

[36] = system: SK-BR-3; assay: as above
In short: as §2

[37] = system: CAL-120; assay: as above
In short: as §2

SMILES: O=NN(CCCl)C(=O)NC1CCCCC1 [Lomustine] (1 nM)
- normalised response [1]: 97.5%
- normalised response [2]: 107%
- normalised response [3]: 105%
- normalised response [4]: 98.2%
- normalised response [5]: 108%
- normalised response [6]: 101%
- normalised response [7]: 94.9%
- normalised response [8]: 99.3%
- normalised response [9]: 97.6%
- normalised response [10]: 93.9%
- normalised response [11]: 106%
- normalised response [12]: 97.2%
- normalised response [13]: 105%
- normalised response [14]: 97.5%
- normalised response [15]: 94.2%
- normalised response [16]: 94.4%
- normalised response [17]: 91.6%
- normalised response [18]: 104%
- normalised response [19]: 99.1%
- normalised viability [20]: 83.4%
- normalised viability [21]: 109%
- normalised viability [22]: 109%
- normalised viability [23]: 114%
- normalised viability [24]: 88%
- normalised viability [25]: 86.3%
- normalised viability [26]: 100%
- normalised viability [27]: 98.8%
- normalised viability [28]: 102%
- normalised viability [29]: 100%
- normalised viability [30]: 110%
- normalised viability [31]: 95.2%
- normalised viability [32]: 97.3%
- normalised viability [33]: 107%
- normalised viability [34]: 107%
- normalised viability [35]: 108%
- normalised viability [36]: 93.6%
- normalised viability [37]: 91.6%

SMILES: Cc1cc2c(F)c(Oc3ncnn4cc(OC[C@@H](C)O)c(C)c34)ccc2[nH]1 [Brivanib] (0.1 nM)
- normalised response [1]: 105%
- normalised response [2]: 108%
- normalised response [3]: 111%
- normalised response [4]: 101%
- normalised response [5]: 104%
- normalised response [6]: 104%
- normalised response [7]: 101%
- normalised response [8]: 113%
- normalised response [9]: 101%
- normalised response [10]: 104%
- normalised response [11]: 104%
- normalised response [12]: 97.9%
- normalised response [13]: 104%
- normalised response [14]: 107%
- normalised response [15]: 100%
- normalised response [16]: 106%
- normalised response [17]: 114%
- normalised response [18]: 111%
- normalised response [19]: 101%
- normalised viability [20]: 96.5%
- normalised viability [21]: 96%
- normalised viability [22]: 114%
- normalised viability [23]: 104%
- normalised viability [24]: 93.5%
- normalised viability [25]: 82.1%
- normalised viability [26]: 104%
- normalised viability [27]: 86.7%
- normalised viability [28]: 109%
- normalised viability [29]: 112%
- normalised viability [30]: 84.9%
- normalised viability [31]: 101%
- normalised viability [32]: 99.5%
- normalised viability [33]: 109%
- normalised viability [34]: 107%
- normalised viability [35]: 93.4%
- normalised viability [36]: 98%
- normalised viability [37]: 78.7%

SMILES: CC(C)C(=O)Nc1ccc([N+](=O)[O-])c(C(F)(F)F)c1 [Flutamide] (1 nM)
- normalised response [1]: 98.4%
- normalised response [2]: 103%
- normalised response [3]: 97.4%
- normalised response [4]: 103%
- normalised response [5]: 113%
- normalised response [6]: 98.5%
- normalised response [7]: 94.7%
- normalised response [8]: 96%
- normalised response [9]: 96.7%
- normalised response [10]: 97%
- normalised response [11]: 98.2%
- normalised response [12]: 101%
- normalised response [13]: 93.2%
- normalised response [14]: 99%
- normalised response [15]: 98.5%
- normalised response [16]: 96.8%
- normalised response [17]: 113%
- normalised response [18]: 105%
- normalised response [19]: 103%
- normalised viability [20]: 90.4%
- normalised viability [21]: 119%
- normalised viability [22]: 94.7%
- normalised viability [23]: 104%
- normalised viability [24]: 96.8%
- normalised viability [25]: 65.1%
- normalised viability [26]: 96.1%
- normalised viability [27]: 96.8%
- normalised viability [28]: 100%
- normalised viability [29]: 134%
- normalised viability [30]: 118%
- normalised viability [31]: 90.7%
- normalised viability [32]: 90.2%
- normalised viability [33]: 86.2%
- normalised viability [34]: 114%
- normalised viability [35]: 109%
- normalised viability [36]: 98.1%
- normalised viability [37]: 93.6%

SMILES: C[C@@H](C(=O)O)c1ccc(-c2ccccc2)c(F)c1 [Tarenflurbil] (1 nM)
- normalised response [1]: 93.5%
- normalised response [2]: 85.5%
- normalised response [3]: 113%
- normalised response [4]: 102%
- normalised response [5]: 103%
- normalised response [6]: 93.8%
- normalised response [7]: 92.7%
- normalised response [8]: 97.1%
- normalised response [9]: 91.3%
- normalised response [10]: 95.6%
- normalised response [11]: 99.1%
- normalised response [12]: 96.8%
- normalised response [13]: 94.2%
- normalised response [14]: 98.1%
- normalised response [15]: 103%
- normalised response [16]: 98.8%
- normalised response [17]: 83.3%
- normalised response [18]: 84.6%
- normalised response [19]: 98.1%
- normalised viability [20]: 97.5%
- normalised viability [21]: 128%
- normalised viability [22]: 103%
- normalised viability [23]: 107%
- normalised viability [24]: 114%
- normalised viability [25]: 108%
- normalised viability [26]: 107%
- normalised viability [27]: 92.7%
- normalised viability [28]: 111%
- normalised viability [29]: 101%
- normalised viability [30]: 85.4%
- normalised viability [31]: 108%
- normalised viability [32]: 88.8%
- normalised viability [33]: 99.2%
- normalised viability [34]: 97.1%
- normalised viability [35]: 110%
- normalised viability [36]: 87.9%
- normalised viability [37]: 93.7%
